From patent US9783499B2, “Quinoline derivatives and their applications” (Shenyang Pharmaceutical University, priority 2012, dated 2017)

How the values were obtained:
[1] = system: human tumor cell lines (such as human lung cancer cells, human gastric cancer cells, etc.); settings: cited from earlier work
[2] = system: HT-29 (colon cancer cell); assay: In vitro anti-tumor cellular activity (MTT), HT-29; format: cell-based; settings: 72 hours
Method: (§1) After pouring the cell dissociation buffer to the centrifugetube, nutrient solution was added to stop digestion. The centrifugetube were centrifuged for 10 min under 800 r/min, the liquid supernatant was removed, 5 mL culture solution was added, after mixing by pipetting the cell, took 10 μL cell suspension to the cell counting plat, and adjusted the cell concentration to 10^4/well. Among the 96 wells, A1 is empty, 100 μL of cell suspension were added to the other wells. The 96 well plates were incubated in the incubator for 24 h. […] The 96-well plates were placed in an incubator and cultivated for 72 hours. (3) The culture media containing the compounds in the 96-well plates was discarded, and the cells were washed with phosphate buffered solution (PBS) twice. Each well was added with 100 μL MTT (tetrazole) (0.5 mg/mL), and then placed in an incubator to incubate for 4 hours, after which MTT solution was discarded and 100 μL dimethyl sulfoxide was added thereto.

[3] = system: U87MG (Human malignant glioblastoma cell); assay: In vitro anti-tumor cellular activity (MTT), U87MG; format: cell-based; settings: 72 hours
Method: as §1

[4] = system: H460 (human lung cancer cell); assay: In vitro anti-tumor cellular activity (MTT), H460; format: cell-based; settings: 72 hours
Method: as §1

[5] = system: MKN-45 (human gastric carcinoma cell); assay: In vitro anti-tumor cellular activity (MTT), MKN-45; format: cell-based; settings: 72 hours
Method: as §1

[6] = system: MDA-MB-231 (human beast cancer cell); assay: In vitro anti-tumor cellular activity (MTT), MDA-MB-231; format: cell-based; settings: 72 hours
Method: as §1

[7] = system: SMMC-7721 (hepatoma cell); assay: In vitro anti-tumor cellular activity (MTT), SMMC-7721; format: cell-based; settings: 72 hours
Method: as §1

Structure (SMILES) | IC50 against a variety of human tumor cell lines [1] | HT-29 IC50 [2] [µg/mL] | U87MG IC50 [3] [µg/mL] | H460 IC50 [4] [µg/mL] | MKN-45 IC50 [5] [µg/mL] | MDA-MB-231 IC50 [6] [µg/mL] | SMMC-7721 IC50 [7] [µg/mL]
COc1cc2c(Oc3ccc(NC(=O)C4(C(=O)Nc5ccc(F)cc5)CC4)cc3F)ccnc2cc1OCCCN1CCOCC1 [Foretinib] | about 0.004 mg/mL |  |  |  |  |  | 
COc1cc2c(Oc3ccc(C=NNC(=O)Nc4cccc(Br)c4)cc3F)ccnc2cc1OCCCN1CCOCC1 [Example 54, (E)-N^1-(3-bromophenyl)-N^4-(3-fluoro-4-(6-methoxy-7-(3-(morpholin-4-yl)propoxy)quinoline-4-yloxy)benzaldehyde)semicarbazone] |  | 1.3 | 1.8 | 1.5 | 2.0 | 0.96 | 2.7
